Measured values as given in PubChem BioAssay (NCI).
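Five concentrations, 48 hours, 96-well plates. Abbreviation: GI50, concentration required for 50% inhibition of growth. TGI: total growth inhibition.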

Experiments:
Test in all cases: NCI tumour cell line growth inhibition, 48 h; in the data active = GI50 below about 0.43 µM; inactive = the rest
SNB-19 CNS = test system: SNB-19 CNS
SNB-75 CNS = test system: SNB-75 CNS
HCT-116 colon = test system: HCT-116 colon
NCI/ADR-RES ovarian = test system: NCI/ADR-RES ovarian
MOLT-4 leukemia = test system: MOLT-4 leukemia
NCI-H522 lung = test system: NCI-H522 lung
HL-60(TB) leukemia = test system: HL-60(TB) leukemia
SF-539 CNS = test system: SF-539 CNS
MDA-MB-231 breast = test system: MDA-MB-231 breast
NCI-H226 lung = test system: NCI-H226 lung
MCF7 breast = test system: MCF7 breast
HS 578T breast = test system: HS 578T breast
NCI-H460 lung = test system: NCI-H460 lung
CAKI-1 renal = test system: CAKI-1 renal
T-47D breast = test system: T-47D breast
SF-268 CNS = test system: SF-268 CNS
SW-620 colon = test system: SW-620 colon
M14 melanoma = test system: M14 melanoma
SK-MEL-2 melanoma = test system: SK-MEL-2 melanoma
PC-3 prostate = test system: PC-3 prostate
DU-145 prostate = test system: DU-145 prostate
EKVX NSCLC = test system: EKVX NSCLC
COLO 205 colon = test system: COLO 205 colon
TK-10 renal = test system: TK-10 renal
BT-549 breast = test system: BT-549 breast
786-0 renal = test system: 786-0 renal
UACC-62 melanoma = test system: UACC-62 melanoma
UACC-257 melanoma = test system: UACC-257 melanoma
NCI-H23 lung = test system: NCI-H23 lung
LOX IMVI melanoma = test system: LOX IMVI melanoma
SK-MEL-28 melanoma = test system: SK-MEL-28 melanoma
UO-31 renal = test system: UO-31 renal
OVCAR-8 ovarian = test system: OVCAR-8 ovarian
SR leukemia = test system: SR leukemia
SN12C renal = test system: SN12C renal
SK-MEL-5 melanoma = test system: SK-MEL-5 melanoma
MDA-MB-435 = test system: MDA-MB-435
A549 NSCLC = test system: A549 NSCLC
KM12 colon = test system: KM12 colon
MALME-3M melanoma = test system: MALME-3M melanoma
OVCAR-4 ovarian = test system: OVCAR-4 ovarian
OVCAR-5 ovarian = test system: OVCAR-5 ovarian
HCT-15 colon = test system: HCT-15 colon
SK-OV-3 ovarian = test system: SK-OV-3 ovarian
OVCAR-3 ovarian = test system: OVCAR-3 ovarian
HT29 colon = test system: HT29 colon
IGROV1 ovarian = test system: IGROV1 ovarian
A498 renal = test system: A498 renal
U251 CNS = test system: U251 CNS
RPMI-8226 leukemia = test system: RPMI-8226 leukemia
SF-295 CNS = test system: SF-295 CNS
HOP-92 NSCLC = test system: HOP-92 NSCLC
CCRF-CEM leukemia = test system: CCRF-CEM leukemia
ACHN renal = test system: ACHN renal
HCC-2998 colon = test system: HCC-2998 colon
RXF 393 renal = test system: RXF 393 renal
HOP-62 NSCLC = test system: HOP-62 NSCLC
K-562 leukemia = test system: K-562 leukemia

CS(=O)(=O)CCNCc1ccc(-c2ccc3ncnc(Nc4ccc(OCc5ccccc5)cc4)c3c2)o1
8.56 µM: TGI (UACC-257 melanoma)
13.4 µM: TGI (HCT-15 colon)
8.27 µM: TGI (A498 renal)
7.11 µM: TGI (SK-MEL-5 melanoma)
11.4 µM: TGI (COLO 205 colon) | TGI (MDA-MB-435)
9.74 µM: TGI (M14 melanoma)
10.7 µM: TGI (SK-MEL-2 melanoma)
8.73 µM: TGI (786-0 renal)
> 25 µM: TGI (SNB-19 CNS) | TGI (SNB-75 CNS) | TGI (NCI/ADR-RES ovarian) | TGI (MOLT-4 leukemia) | TGI (NCI-H226 lung) | TGI (NCI-H460 lung) | TGI (CAKI-1 renal) | TGI (T-47D breast) | TGI (SF-268 CNS) | TGI (DU-145 prostate) | TGI (NCI-H23 lung) | TGI (OVCAR-8 ovarian) | TGI (SN12C renal) | TGI (A549 NSCLC) | TGI (KM12 colon) | TGI (OVCAR-4 ovarian) | TGI (OVCAR-5 ovarian) | TGI (SK-OV-3 ovarian) | TGI (OVCAR-3 ovarian) | TGI (U251 CNS) | TGI (ACHN renal) | TGI (HOP-62 NSCLC) | TGI (K-562 leukemia)
> 17 µM: TGI (HCT-116 colon)
active: GI50 (EKVX NSCLC) 0.371 µM | GI50 (TK-10 renal) 0.285 µM | GI50 (SK-OV-3 ovarian) 0.401 µM
9.7 µM: TGI (TK-10 renal)
inactive: GI50 (SNB-19 CNS) 11.1 µM | GI50 (SNB-75 CNS) 5.71 µM | GI50 (HCT-116 colon) 5.99 µM | GI50 (NCI/ADR-RES ovarian) 6.71 µM | GI50 (MOLT-4 leukemia) 9.31 µM | GI50 (NCI-H522 lung) 3.32 µM | GI50 (HL-60(TB) leukemia) 6.4 µM | GI50 (SF-539 CNS) 4.91 µM | GI50 (MDA-MB-231 breast) 4.82 µM | GI50 (NCI-H226 lung) 13.2 µM | GI50 (MCF7 breast) 2.84 µM | GI50 (HS 578T breast) 6.43 µM | GI50 (NCI-H460 lung) 3.73 µM | GI50 (CAKI-1 renal) 2.04 µM | GI50 (T-47D breast) 4.01 µM | GI50 (SF-268 CNS) 9.14 µM | GI50 (SW-620 colon) 6.94 µM | GI50 (M14 melanoma) 4.89 µM | GI50 (SK-MEL-2 melanoma) 5.5 µM | GI50 (PC-3 prostate) 7.23 µM | GI50 (DU-145 prostate) 5.3 µM | GI50 (COLO 205 colon) 5 µM | GI50 (BT-549 breast) 5.85 µM | GI50 (786-0 renal) 4.35 µM | GI50 (UACC-62 melanoma) 4.68 µM | GI50 (UACC-257 melanoma) 4.38 µM | GI50 (NCI-H23 lung) 8.57 µM | GI50 (LOX IMVI melanoma) 4.05 µM | GI50 (SK-MEL-28 melanoma) 4.04 µM | GI50 (UO-31 renal) 2.95 µM | GI50 (OVCAR-8 ovarian) 8.73 µM | GI50 (SR leukemia) 5.06 µM | GI50 (SN12C renal) 5.87 µM | GI50 (SK-MEL-5 melanoma) 3.72 µM | GI50 (MDA-MB-435) 4.94 µM | GI50 (A549 NSCLC) 5.19 µM | GI50 (KM12 colon) 8.85 µM | GI50 (MALME-3M melanoma) 4.99 µM | GI50 (OVCAR-4 ovarian) 11.1 µM | GI50 (OVCAR-5 ovarian) 6.51 µM | GI50 (HCT-15 colon) 4.13 µM | GI50 (OVCAR-3 ovarian) 8.47 µM | GI50 (HT29 colon) 3.33 µM | GI50 (IGROV1 ovarian) 3.45 µM | GI50 (A498 renal) 2.98 µM | GI50 (U251 CNS) 6.2 µM | GI50 (RPMI-8226 leukemia) 5.38 µM | GI50 (SF-295 CNS) 4.89 µM | GI50 (HOP-92 NSCLC) 3.13 µM | GI50 (CCRF-CEM leukemia) 0.631 µM | GI50 (ACHN renal) 1.28 µM | GI50 (HCC-2998 colon) 5.26 µM | GI50 (RXF 393 renal) 4.12 µM | GI50 (HOP-62 NSCLC) 9.66 µM | GI50 (K-562 leukemia) 9.27 µM
> 17.3 µM: TGI (SW-620 colon)
14.1 µM: TGI (HOP-92 NSCLC)
11 µM: TGI (SF-539 CNS)
24.7 µM: TGI (EKVX NSCLC)
8.95 µM: TGI (UO-31 renal)
> 17.7 µM: TGI (MCF7 breast)
> 23.7 µM: TGI (PC-3 prostate)
13.5 µM: TGI (HT29 colon)
12.1 µM: TGI (HCC-2998 colon)
8.98 µM: TGI (UACC-62 melanoma)
17.5 µM: TGI (BT-549 breast)
7.83 µM: TGI (SK-MEL-28 melanoma)
11.1 µM: TGI (MDA-MB-231 breast) | TGI (MALME-3M melanoma)
10.4 µM: TGI (NCI-H522 lung)
14 µM: TGI (HL-60(TB) leukemia)
> 19.9 µM: TGI (SR leukemia)
10.1 µM: TGI (RXF 393 renal)
> 20.5 µM: TGI (HS 578T breast)
> 15.6 µM: TGI (CCRF-CEM leukemia)
10.8 µM: TGI (SF-295 CNS)
> 18.8 µM: TGI (IGROV1 ovarian)
> 16.8 µM: TGI (RPMI-8226 leukemia)
8.75 µM: TGI (LOX IMVI melanoma)
